Source: patent publication US8138178B2, “Cyclic inhibitors of 11beta-hydroxysteroid dehydrogenase 1” (Vitae Pharmaceuticals, Inc., priority 2008, dated 2012)

Key:
[1] = biological target: human recombinant cytochrome P450 3A4 (Homo sapiens, UniProt P08684); test: Biological Test Example 6: CYP3A4 inhibition; assay type: in vitro ADME
[2] = biological target: human recombinant cytochrome P450 2C9 (Homo sapiens, UniProt P11712); test: biochemical
[3] = Biological Test Example 5: fraction unbound in human plasma (equilibrium dialysis); assay type: in vitro ADME
[4] = biological target: human recombinant cytochrome P450 2C19 (Homo sapiens, UniProt P33261); test: Biological Test Example 8: CYP2C19 inhibition; assay type: in vitro ADME
Chain of human recombinant cytochrome P450 2C19 (P33261 whole entry): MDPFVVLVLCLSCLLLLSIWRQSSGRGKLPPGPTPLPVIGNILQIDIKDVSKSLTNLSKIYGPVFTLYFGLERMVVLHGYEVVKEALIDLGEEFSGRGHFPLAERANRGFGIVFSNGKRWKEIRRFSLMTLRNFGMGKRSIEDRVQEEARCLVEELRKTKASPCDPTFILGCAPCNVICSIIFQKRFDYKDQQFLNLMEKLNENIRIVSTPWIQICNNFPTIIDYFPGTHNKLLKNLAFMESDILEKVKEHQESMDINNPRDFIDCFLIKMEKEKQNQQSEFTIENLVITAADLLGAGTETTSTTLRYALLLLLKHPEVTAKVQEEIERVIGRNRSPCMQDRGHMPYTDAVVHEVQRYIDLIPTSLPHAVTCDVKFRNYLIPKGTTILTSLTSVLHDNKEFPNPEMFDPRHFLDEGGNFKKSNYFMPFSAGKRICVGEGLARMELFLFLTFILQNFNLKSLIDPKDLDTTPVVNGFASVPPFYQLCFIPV

Chain of human recombinant cytochrome P450 3A4 (P08684 whole entry): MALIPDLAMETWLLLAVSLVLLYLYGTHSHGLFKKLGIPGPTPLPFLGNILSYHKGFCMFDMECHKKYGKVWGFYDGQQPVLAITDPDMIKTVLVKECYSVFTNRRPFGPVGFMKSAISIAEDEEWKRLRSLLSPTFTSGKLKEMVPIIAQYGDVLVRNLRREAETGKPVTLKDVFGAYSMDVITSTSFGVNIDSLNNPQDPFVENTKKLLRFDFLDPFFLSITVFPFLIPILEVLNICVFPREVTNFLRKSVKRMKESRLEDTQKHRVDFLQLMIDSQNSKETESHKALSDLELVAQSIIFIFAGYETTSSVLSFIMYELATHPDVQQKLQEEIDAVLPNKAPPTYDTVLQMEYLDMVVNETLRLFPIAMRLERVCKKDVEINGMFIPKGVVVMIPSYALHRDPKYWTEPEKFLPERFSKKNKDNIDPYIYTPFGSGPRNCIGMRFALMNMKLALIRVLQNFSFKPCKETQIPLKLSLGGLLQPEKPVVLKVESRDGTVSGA
Chain of human recombinant cytochrome P450 2C9 (P11712 whole entry): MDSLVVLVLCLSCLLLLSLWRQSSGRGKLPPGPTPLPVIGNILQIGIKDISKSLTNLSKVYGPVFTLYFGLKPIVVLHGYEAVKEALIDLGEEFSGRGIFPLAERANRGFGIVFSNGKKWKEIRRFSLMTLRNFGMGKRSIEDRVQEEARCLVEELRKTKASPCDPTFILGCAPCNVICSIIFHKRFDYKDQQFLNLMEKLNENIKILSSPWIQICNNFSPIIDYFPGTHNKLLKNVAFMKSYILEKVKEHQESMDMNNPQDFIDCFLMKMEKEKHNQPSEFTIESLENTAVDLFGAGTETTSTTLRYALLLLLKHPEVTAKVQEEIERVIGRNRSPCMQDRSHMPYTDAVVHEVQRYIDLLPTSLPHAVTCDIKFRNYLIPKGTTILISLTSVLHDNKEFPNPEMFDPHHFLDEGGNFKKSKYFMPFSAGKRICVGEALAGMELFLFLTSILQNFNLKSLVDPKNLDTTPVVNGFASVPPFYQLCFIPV

Compound | IC50 [1] [µM] | fraction unbound [3] | other results
C[C@@H](c1ccc(-c2ccc(=O)n(C)c2)cc1)N1CC[C@](CC(C)(C)O)(c2ccccc2F)OC1=O [Example 23, (S)-6-(2-fluorophenyl)-6-(2-hydroxy-2-methylpropyl)-3-((S)-1-(4-(1-methyl-6-oxo-1,6-dihydropyridin-3-yl)phenyl)ethyl)-1,3-oxazinan-2-one] | > 50 | – | IC50 [2]: > 50 µM
C[C@@H](c1ccc(-c2ccc(=O)n(C)c2)cc1)N1CC[C@](CCCO)(c2ccccc2)OC1=O [Example 30, (R)-6-(3-hydroxypropyl)-3-((S)-1-(4-(1-methyl-6-oxo-1,6-dihydropyridin-3-yl)phenyl)ethyl)-6-phenyl-1,3-oxazinan-2-one] | – | 0.139 | –
C[C@@H](c1ccc(-c2ccc(=O)n(C)c2)cc1)N1CC[C@](CC(C)(C)O)(c2ccc(F)cc2)OC1=O [Example 32, (S)-6-(4-fluorophenyl)-6-(2-hydroxy-2-methylpropyl)-3-((S)-1-(4-(1-methyl-6-oxo-1,6-dihydropyridin-3-yl)phenyl)ethyl)-1,3-oxazinan-2-one] | – | 0.123 | –
C[C@@H](c1ccc(-c2ccc(=O)n(C)c2)cc1)N1CC[C@](CC(C)(C)O)(c2ccccc2)OC1=O [Example 37, (S)-6-(2-hydroxy-2-methylpropyl)-3-((S)-1-(4-(1-methyl-6-oxo-1,6-dihydropyridin-3-yl)phenyl)ethyl)-6-phenyl-1,3-oxazinan-2-one] | – | 0.146 | –
C[C@@H](c1ccc(-c2ccn(C)c(=O)c2)cc1)N1CC[C@](CC(C)(C)O)(c2ccccc2)OC1=O [Example 48, (S)-6-(2-hydroxy-2-methylpropyl)-3-((S)-1-(4-(1-methyl-2-oxo-1,2-dihydropyridin-4-yl)phenyl)ethyl)-6-phenyl-1,3-oxazinan-2-one] | – | 0.087 | –
CC[C@@H](c1ccc(-c2ccc(=O)n(CC)c2)cc1)N1CC[C@](CC(C)(C)O)(c2ccccc2)OC1=O [Example 52, (S)-3-((S)-1-(4-(1-ethyl-6-oxo-1,6-dihydropyridin-3-yl)phenyl)propyl)-6-(2-hydroxy-2-methylpropyl)-6-phenyl-1,3-oxazinan-2-one] | 48 | 0.09 | IC50 [4]: 8 µM
CCn1cc(-c2ccc([C@H](C)N3CC[C@](CC(C)(C)O)(c4ccccc4)OC3=O)cc2)ccc1=O [Example 53, (S)-3-((S)-1-(4-(1-ethyl-6-oxo-1,6-dihydropyridin-3-yl)phenyl)ethyl)-6-(2-hydroxy-2-methylpropyl)-6-phenyl-1,3-oxazinan-2-one] | – | 0.128 | –
CC[C@@H](c1ccc(-c2ccc(=O)n(C)c2)cc1)N1CC[C@](CC(C)(C)O)(c2ccccc2)OC1=O [Example 54, (S)-6-(2-hydroxy-2-methylpropyl)-3-((S)-1-(4-(1-methyl-6-oxo-1,6-dihydropyridin-3-yl)phenyl)propyl)-6-phenyl-1,3-oxazinan-2-one] | – | 0.091 | –
CC[C@@H](c1ccc(-c2ccn(C)c(=O)c2)cc1)N1CC[C@](CC(C)(C)O)(c2ccccc2)OC1=O [Example 55, (S)-6-(2-hydroxy-2-methylpropyl)-3-((S)-1-(4-(1-methyl-2-oxo-1,2-dihydropyridin-4-yl)phenyl)propyl)-6-phenyl-1,3-oxazinan-2-one] | – | 0.071 | –
C[C@@H](c1ccc(-c2ccn(CC(F)(F)F)c(=O)c2)cc1)N1CC[C@](CC(C)(C)O)(c2ccccc2)OC1=O [Example 66, (S)-6-(2-hydroxy-2-methylpropyl)-3-((S)-1-(4-(2-oxo-1-(2,2,2-trifluoroethyl)-1,2-dihydropyridin-4-yl)phenyl)ethyl)-6-phenyl-1,3-oxazinan-2-one] | – | 0.055 | –
C[C@@H](c1ccc(-c2ccn(C3CC3)c(=O)c2)cc1)N1CC[C@](CC(C)(C)O)(c2ccccc2)OC1=O [Example 75, 3-{(S)-1-[4-(1-Cyclopropyl-2-oxo-1,2-dihydro-pyridin-4-yl)-phenyl]-ethyl}-(S)-6-(2-hydroxy-2-methyl-propyl)-6-phenyl-[1,3]oxazinan-2-one] | – | 0.156 | –
COC[C@]1(c2ccccc2)CCN([C@@H](C)c2ccc(-c3ccc(=O)n(C)c3)cc2)C(=O)O1 [Example 77, (R)-6-Methoxymethyl-3-{(S)-1-[4-(1-methyl-6-oxo-1,6-dihydro-pyridin-3-yl)-phenyl]-ethyl}-6-phenyl-[1,3]oxazinan-2-one] | > 50 | – | IC50 [2]: > 50 µM
(S)-3-((S)-1-(4-(1-(difluoromethyl)-2-oxo-1,2-dihydropyridin-4-yl)phenyl)ethyl)-6-(2-hydroxy-2-methylpropyl)-6-phenyl-1,3-oxazinan-2-one [Example 5] | 29 | – | –
